We go through eleven compounds from ChEMBL document CHEMBL1201862, “PubChem BioAssay data set” (2004).

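Results reflect a 48-hour exposure of cells in 96-well plates to compound at five concentrations. Here, GI50 denotes the concentration required for 50% inhibition of growth.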 Activity calls are given as the source filed them. Cut-off read from the data, not from the text of the source: active = GI50 up to about 1.1 µM and inactive = higher.

Among the test systems are A498; CAKI-1; COLO 205; HCT-15; K562; KM12; LOX IMVI; MCF7; MDA-N; MOLT-4; NCI-H522; OVCAR-4; RPMI-8226; SNB-19; SR; TK-10; U-251; UACC-257; UO-31; HL-60.
Holding throughout (test): NCI anticancer screen, dose series, 48 h

For the compound `NC1=NC(c2ccc(Cl)cc2)N(c2ccc(S(N)(=O)=O)cc2)C(N)=N1` (configuration not stated), the GI50 is > 100 µM (inactive) in the test on A498; > 100 µM (inactive) in the test on CAKI-1; > 100 µM (inactive) with COLO 205; above 100 µM in the test with HCT-15; > 100 µM (inactive) in the test on K562; > 100 µM (inactive) in the test on KM12. Moreover, the GI50 in the test with LOX IMVI, in the test with MCF7, in the test on MDA-N, in the test on MOLT-4, with NCI-H522 and with OVCAR-4 was > 100 µM (inactive) in each case. In addition, the GI50 with RPMI-8226, in the test with SNB-19, with SR, in the test on TK-10, in the test on U-251 and in the test with UACC-257 was > 100 µM (inactive) each time. Moreover, the GI50 with UO-31 is > 100 µM (inactive).
Consider `COc1ccc(-c2cc(-c3ccccc3)nc(N)n2)c(O)c1`, for which the GI50 is > 100 µM (inactive) with A498; > 100 µM (inactive) in the test with COLO 205; 6.03 µM in the test with HCT-15; 2.02 µM (inactive) with HL-60; 2.19 µM (inactive) in the test with K562; 4.67 µM (inactive) in the test on KM12. Moreover, the GI50 was 6.78 µM (inactive) in the test on LOX IMVI; 0.984 µM (active) in the test on MCF7; 4.55 µM (inactive) in the test with MDA-N; 4.16 µM (inactive) in the test on MOLT-4; 2.78 µM (inactive) with NCI-H522; > 74.6 µM (inactive) in the test on OVCAR-4. Further, the GI50 is 2.31 µM (inactive) with RPMI-8226; > 82.8 µM (inactive) in the test with SNB-19; 4.3 µM (inactive) with SR; > 100 µM (inactive) with TK-10; 12.6 µM (inactive) in the test on U-251; > 100 µM (inactive) in the test with UACC-257. Besides, the GI50 in the test with UO-31 was 2.13 µM (inactive).
For the compound `Cc1sc2c(c1C)C(=O)c1cccn1-2`, the GI50 was 60 µM (inactive) in the test with A498; 85.7 µM (inactive) in the test with CAKI-1; > 100 µM (inactive) with COLO 205; above 100 µM in the test with HCT-15; 38.8 µM (inactive) in the test with K562; > 100 µM (inactive) in the test with KM12. Besides, the GI50 is 64.9 µM (inactive) in the test on LOX IMVI; 68.5 µM (inactive) in the test on MCF7; 28.6 µM (inactive) with MDA-N; 38.8 µM (inactive) in the test on MOLT-4; 92 µM (inactive) in the test on NCI-H522; > 100 µM (inactive) in the test with OVCAR-4. Also, the GI50 was 50.7 µM (inactive) in the test with RPMI-8226; > 100 µM (inactive) with SNB-19; 19.3 µM (inactive) in the test on SR; > 100 µM (inactive) in the test with TK-10; 61.7 µM (inactive) with U-251; > 100 µM (inactive) in the test on UACC-257. In addition, the GI50 in the test on UO-31 was 54.7 µM (inactive).
Regarding `O=C(C#CP(=O)(O)c1ccccc1)c1ccccc1`, the GI50 in the test on A498 was > 100 µM (inactive); in the test on CAKI-1, > 100 µM (inactive); in the test with COLO 205 it was > 100 µM (inactive); in the test on HCT-15, above 100 µM; with K562, > 100 µM (inactive); in the test with KM12, > 100 µM (inactive). Also, the GI50 in the test on LOX IMVI, in the test on MCF7, in the test with MDA-N, with NCI-H522, in the test with OVCAR-4 and in the test with SNB-19 was > 100 µM (inactive) in each case. For the same compound, the GI50 in the test with SR is > 100 µM (inactive); with TK-10, > 100 µM (inactive); in the test on U-251 it was > 100 µM (inactive); in the test with UACC-257, > 100 µM (inactive); in the test with UO-31 it was < 0.01 µM (active).
Take `CCCCCCCCCCCCCCCCCCNc1nc(=O)n(C2CC(O)C(COP(=O)(O)OCC3OC(n4ccc(N)nc4=O)C(O)C3O)O2)cc1F` (configuration not stated): the GI50 in the test with A498 was 17.2 µM (inactive); in the test with CAKI-1, 92.5 µM (inactive); with COLO 205, 26.9 µM (inactive); in the test on HCT-15, 12.7 µM; in the test with K562, > 100 µM (inactive); with KM12, > 100 µM (inactive). The GI50 with LOX IMVI is 10.2 µM (inactive); with MCF7, 6.7 µM (inactive); in the test with MDA-N, > 100 µM (inactive); with MOLT-4, 25.9 µM (inactive); in the test with NCI-H522 it was 3.8 µM (inactive); with OVCAR-4, 93.5 µM (inactive). The GI50 in the test with RPMI-8226 is > 100 µM (inactive); in the test on SNB-19, 10.6 µM (inactive); in the test on SR, > 100 µM (inactive); in the test with TK-10 it was > 100 µM (inactive); in the test with U-251, 23.7 µM (inactive); with UACC-257, > 100 µM (inactive). In addition, in the test with UO-31, the GI50 was 24.5 µM (inactive).
`CC1=CC[C@H](C[C@H](C#CCCCC2OCCO2)O[Si](C(C)C)(C(C)C)C(C)C)C(=O)CC1`: the GI50 in the test with A498 is > 100 µM (inactive); with CAKI-1, > 100 µM (inactive); in the test with COLO 205, > 100 µM (inactive); with HCT-15, above 100 µM; in the test on K562 it was > 100 µM (inactive); in the test with KM12, > 100 µM (inactive). Moreover, the GI50 in the test on LOX IMVI, with MCF7, in the test with MDA-N, in the test with MOLT-4, in the test on OVCAR-4 and with RPMI-8226 was > 100 µM (inactive) in each case. The GI50 with SNB-19, in the test on SR, with TK-10, in the test on U-251, with UACC-257 and with UO-31 was > 100 µM (inactive) throughout.
Take `O=Cc1cc([N+](=O)[O-])no1`: the GI50 is > 100 µM (inactive) in the test on A498; > 100 µM (inactive) in the test with CAKI-1; 36 µM (inactive) with COLO 205; 36.8 µM in the test with HCT-15; 15.9 µM (inactive) in the test on HL-60; 4.85 µM (inactive) in the test with K562. The GI50 in the test on KM12 was 18.7 µM (inactive); in the test on LOX IMVI, 7.13 µM (inactive); in the test with MCF7, 22 µM (inactive); in the test with MDA-N, 23.7 µM (inactive); with MOLT-4 it was 18.7 µM (inactive); in the test with OVCAR-4, 17.2 µM (inactive). The GI50 in the test with RPMI-8226 was 16.9 µM (inactive); with SNB-19, 92.9 µM (inactive); in the test on SR, 31.4 µM (inactive); in the test on TK-10 it was > 100 µM (inactive); with U-251 it was 53.3 µM (inactive); in the test with UACC-257, 28.5 µM (inactive). In addition, the GI50 in the test with UO-31 is > 100 µM (inactive).
Turning to `Cc1cc(-c2nc3ccccc3s2)ccc1NC(=O)[C@H](C)N`, the GI50 in the test on A498 was 14.4 µM (inactive); with CAKI-1 it was 11.3 µM (inactive); with COLO 205, 13.2 µM (inactive); with HCT-15, 14.1 µM; with K562, 6.95 µM (inactive); in the test on KM12, 14.4 µM (inactive). In addition, the GI50 in the test on LOX IMVI is 5.06 µM (inactive); with MCF7 it was 0.372 µM (active); in the test with MDA-N, 10.4 µM (inactive); with MOLT-4, 18.2 µM (inactive); in the test with NCI-H522 it was 24.2 µM (inactive); in the test on OVCAR-4, 12.2 µM (inactive). Moreover, the GI50 in the test on SNB-19 was 15.1 µM (inactive); in the test on SR it was 5.2 µM (inactive); in the test with U-251, 15 µM (inactive); with UACC-257, 16.9 µM (inactive); in the test on UO-31, 5.78 µM (inactive).
Take `O=c1[nH]c(=O)n(COCc2ccccc2)cc1Nc1ccc(Br)cc1`: the GI50 is > 100 µM (inactive) in the test on A498; > 100 µM (inactive) with CAKI-1; > 100 µM (inactive) with COLO 205; above 100 µM in the test with HCT-15; > 100 µM (inactive) in the test with HL-60; > 100 µM (inactive) in the test on K562. For the same compound, the GI50 with KM12, with LOX IMVI, in the test with MCF7, in the test with MDA-N, in the test with MOLT-4 and in the test with OVCAR-4 was > 100 µM (inactive) each time. Also, the GI50 in the test with RPMI-8226, with SNB-19, with SR, with U-251, in the test with UACC-257 and in the test with UO-31 was > 100 µM (inactive) throughout.
For the compound `COc1ccc2c3c1OC1C34CCN(C)C(C2)C4=CC(I)C1(OC)OC` (configuration not stated), the GI50 with A498 was 22.9 µM (inactive); with CAKI-1, 12.9 µM (inactive); in the test on COLO 205, 13.9 µM (inactive); in the test on HCT-15, 11.8 µM; in the test on K562, 2.77 µM (inactive); in the test on KM12 it was 14.4 µM (inactive). For the same compound, the GI50 was 7.33 µM (inactive) in the test with LOX IMVI; 5.08 µM (inactive) in the test with MCF7; 6.14 µM (inactive) in the test on MDA-N; 3.15 µM (inactive) in the test with MOLT-4; 5.27 µM (inactive) in the test with NCI-H522; 13.2 µM (inactive) with OVCAR-4. For the same compound, the GI50 in the test with RPMI-8226 was 2.71 µM (inactive); with SNB-19 it was 16.2 µM (inactive); in the test on SR it was 2.36 µM (inactive); in the test on TK-10, 14.7 µM (inactive); with U-251, 16.2 µM (inactive); in the test on UACC-257 it was 13.2 µM (inactive). Further, the GI50 with UO-31 is 14.9 µM (inactive).
As to `O=C([O-])Cc1ccccc1.[Na+]` [SODIUM PHENYLACETATE], the GI50 with A498 is 519 µM (inactive); in the test with COLO 205 it was 1340 µM (inactive); in the test on HCT-15, 703 µM; in the test with K562, 284 µM (inactive); in the test with KM12, 773 µM (inactive); in the test on LOX IMVI, 1160 µM (inactive). Further, the GI50 in the test with MCF7 is > 2000 µM (inactive); in the test on MDA-N, 10.6 µM (inactive); with MOLT-4 it was 289 µM (inactive); with NCI-H522, 618 µM (inactive); in the test with OVCAR-4 it was 255 µM (inactive); in the test with RPMI-8226, 413 µM (inactive). Also, the GI50 in the test with SNB-19 was > 2000 µM (inactive); in the test with SR, 200 µM (inactive); in the test on TK-10, 1130 µM (inactive); with U-251, 729 µM (inactive); in the test with UACC-257, > 2000 µM (inactive); in the test with UO-31, 929 µM (inactive).
